{"source": "paper PMC12627232", "about": "(MedComm, 2025)", "key": {"MC38 cells": {"system": "MC38 cells", "assay": "PD-L1 expression in MC38 cells", "type": "cell-based", "conditions": "24 h"}, "HDAC8": {"biological_target": "T1, HDAC8 (Homo sapiens, UniProt Q9BY41)", "T1 construct": "purchased BPS BIOSCIENCE Inc 50008", "T1 sequence (Q9BY41 whole entry)": "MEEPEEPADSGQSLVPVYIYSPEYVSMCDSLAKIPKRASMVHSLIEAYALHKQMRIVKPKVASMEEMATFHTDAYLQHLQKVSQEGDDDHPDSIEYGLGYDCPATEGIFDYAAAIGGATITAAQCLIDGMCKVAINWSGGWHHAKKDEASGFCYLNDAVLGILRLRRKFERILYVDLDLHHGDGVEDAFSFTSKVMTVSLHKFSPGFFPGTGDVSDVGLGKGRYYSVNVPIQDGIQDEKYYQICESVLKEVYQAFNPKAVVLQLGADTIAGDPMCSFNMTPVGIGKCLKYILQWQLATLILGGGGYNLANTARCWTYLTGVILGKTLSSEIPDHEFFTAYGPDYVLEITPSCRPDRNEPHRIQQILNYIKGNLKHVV", "assay": "HDACs enzymatic assay HDAC8", "type": "biochemical", "protocol": "(§1) HDACs enzymatic assays were conducted according to our previous work. […] Substrates (Boc‐Lys(acetyl)‐AMC for HeLa nuclear extract, Ac‐Leu‐Gly‐Lys (Tfa)‐AMC for HDAC4, HDAC5, HDAC6, HDAC7, HDAC9, HDAC10, and HDAC11, Boc‐Lys(triflouroacetyl)‐AMC for HDAC8 and Ac‐Leu‐Gly‐Lys(acetyl)‐AMC for HDAC1, HDAC2, HDAC3) were added to the mixture. The blank group was set to no enzyme or drug but contains substrates and the control group was set to no drug but contains substrates and enzymes to each 96‐well plate. After 30 min of incubation at 37°C, the mixture was terminated with 1 mg/mL trypsin and 3 µM TSA. After another 30 min, the fluorescence intensity was measured using a Varioskan plate reader at 360/460 nm. […] The inhibition curves and IC50 values were simulated and calculated using the log(inhibitor) versus response (three parameters) mode in GraphPad Prism software."}, "HDAC6": {"biological_target": "T2, HDAC6 (Homo sapiens, UniProt Q9UBN7)", "T2 construct": "purchased BPS BIOSCIENCE Inc 50006", "T2 sequence (Q9UBN7 whole entry)": "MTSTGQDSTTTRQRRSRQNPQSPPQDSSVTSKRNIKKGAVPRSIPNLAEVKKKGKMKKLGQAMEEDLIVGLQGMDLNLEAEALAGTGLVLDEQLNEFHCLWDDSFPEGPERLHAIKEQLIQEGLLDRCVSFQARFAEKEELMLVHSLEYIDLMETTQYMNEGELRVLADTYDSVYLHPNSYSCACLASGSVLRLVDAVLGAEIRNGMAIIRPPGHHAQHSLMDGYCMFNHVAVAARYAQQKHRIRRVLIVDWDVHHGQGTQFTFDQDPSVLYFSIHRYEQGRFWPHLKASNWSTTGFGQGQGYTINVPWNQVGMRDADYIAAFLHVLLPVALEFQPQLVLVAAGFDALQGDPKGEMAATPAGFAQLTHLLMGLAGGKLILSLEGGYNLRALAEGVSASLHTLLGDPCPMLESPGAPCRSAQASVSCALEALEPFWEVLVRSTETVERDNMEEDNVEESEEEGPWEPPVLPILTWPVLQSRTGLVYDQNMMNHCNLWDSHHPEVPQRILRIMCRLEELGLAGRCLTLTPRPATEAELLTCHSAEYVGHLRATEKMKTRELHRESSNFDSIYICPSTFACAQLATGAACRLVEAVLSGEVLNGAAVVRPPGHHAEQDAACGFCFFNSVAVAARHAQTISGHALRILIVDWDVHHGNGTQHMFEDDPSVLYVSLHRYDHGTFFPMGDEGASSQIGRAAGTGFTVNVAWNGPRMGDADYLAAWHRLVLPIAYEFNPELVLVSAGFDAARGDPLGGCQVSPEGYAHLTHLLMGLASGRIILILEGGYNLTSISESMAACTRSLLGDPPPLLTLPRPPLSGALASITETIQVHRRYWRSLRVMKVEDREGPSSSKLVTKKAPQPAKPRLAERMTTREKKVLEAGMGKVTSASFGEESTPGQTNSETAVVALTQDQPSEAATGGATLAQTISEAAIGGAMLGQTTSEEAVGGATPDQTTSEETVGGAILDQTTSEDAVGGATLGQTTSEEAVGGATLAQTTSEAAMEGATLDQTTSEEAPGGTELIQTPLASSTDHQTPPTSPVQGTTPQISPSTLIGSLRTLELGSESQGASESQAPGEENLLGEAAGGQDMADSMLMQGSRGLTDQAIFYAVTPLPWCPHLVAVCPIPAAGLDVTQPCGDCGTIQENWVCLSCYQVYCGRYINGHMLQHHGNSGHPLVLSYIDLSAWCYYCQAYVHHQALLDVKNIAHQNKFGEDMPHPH", "assay": "HDACs enzymatic assay HDAC6", "type": "biochemical", "conditions": "Class IIb", "protocol": "as §1"}, "MDA-MB-231 cells [1]": {"system": "MDA-MB-231 cells", "assay": "PD-L1 expression by flow cytometry", "type": "cell-based, human", "protocol": "MDA‐MB‐231 cells in logarithmic growth phase were inoculated into six‐well plates with a cell density of 3 × 10^4 cells per well. After incubated at 37°C for 24 h, the original medium was abandoned and 900 µL complete medium was added, in which HitransG P infection solution was added. The virus dosage was calculated according to the formula and added to the cell. Virus volume = cell number × MOI value/virus titer. After incubated in the incubator at 37°C for 16 h, replace fresh complete medium. After that, the medium changed every 24 h. 48 h after infection, the cells were treated with or without compound at a concentration of 1 µM. After 48 h of culture, the fluorescence expression was observed under microscope, and the silencing effect of shHDAC1 was detected by Western Blot. The antibodies HDAC1 (Abmart; #T55154) and GAPDH (Beyotime; #AF2819) were used. The HDAC1‐siRNA lentivirus (shHDAC1) and negative control lentivirus (shCtrl) were obtained from Shanghai GeneChem Co., Ltd. (Shanghai, China).\nNext, cells were digested into single‐cell suspension with trypsin, collected in a flow tube and washed with precooled 1 × PBS. Mouse serum was added to cells for 30 min at room temperature to block cells. Then the cells were incubated with anti‐human‐PD‐L1 (BioLegend; #329732) at 4°C for 1 h, and flow cytometry was performed with FACS Celesta (BD Biosciences, USA). […]"}, "HDAC1": {"biological_target": "T3, HDAC1 (Homo sapiens, UniProt Q13547)", "T3 construct": "purchased BPS BIOSCIENCE INC 50051", "T3 sequence (Q13547 whole entry)": "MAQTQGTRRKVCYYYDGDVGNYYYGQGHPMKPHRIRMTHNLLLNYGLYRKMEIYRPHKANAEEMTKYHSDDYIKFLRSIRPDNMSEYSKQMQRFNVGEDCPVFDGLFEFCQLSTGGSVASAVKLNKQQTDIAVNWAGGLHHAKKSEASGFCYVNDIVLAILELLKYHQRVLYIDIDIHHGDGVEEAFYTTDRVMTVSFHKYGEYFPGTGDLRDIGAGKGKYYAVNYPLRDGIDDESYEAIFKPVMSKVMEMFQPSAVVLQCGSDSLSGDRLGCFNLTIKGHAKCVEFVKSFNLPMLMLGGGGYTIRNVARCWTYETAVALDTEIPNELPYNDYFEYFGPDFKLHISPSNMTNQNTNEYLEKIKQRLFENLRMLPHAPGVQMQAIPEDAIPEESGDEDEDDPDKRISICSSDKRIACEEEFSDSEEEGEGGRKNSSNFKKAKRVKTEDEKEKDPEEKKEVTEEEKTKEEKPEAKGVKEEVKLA", "assay": "HDACs enzymatic assay HDAC1", "type": "biochemical", "protocol": "as §1"}, "HDAC11": {"biological_target": "T4, HDAC11 (Homo sapiens, UniProt Q96DB2)", "T4 construct": "purchased BPS BIOSCIENCE Inc 50011", "T4 sequence (Q96DB2 whole entry)": "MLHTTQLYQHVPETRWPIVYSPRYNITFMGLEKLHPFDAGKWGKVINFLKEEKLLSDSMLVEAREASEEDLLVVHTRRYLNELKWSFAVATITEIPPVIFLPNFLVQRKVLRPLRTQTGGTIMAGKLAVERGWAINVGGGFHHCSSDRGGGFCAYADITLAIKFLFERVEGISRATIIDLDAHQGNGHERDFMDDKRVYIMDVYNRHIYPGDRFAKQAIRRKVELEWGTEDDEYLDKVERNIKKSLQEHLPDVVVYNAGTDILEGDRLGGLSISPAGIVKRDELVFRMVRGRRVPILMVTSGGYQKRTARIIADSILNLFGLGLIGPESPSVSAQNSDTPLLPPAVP", "assay": "HDACs enzymatic assay HDAC11", "type": "biochemical", "conditions": "Class IV", "protocol": "as §1"}, "MDA-MB-231 cells [2]": {"system": "MDA-MB-231 cells", "assay": "TUNEL assay", "type": "cell-based, human", "conditions": "MDA-MB-231, 5 µM, 24 h", "protocol": "The TUNEL assay was performed with the one‐step TUNEL apoptosis kit (MeilunBio) according to the manual from the manufacturer. Briefly, cells (5 × 10^5 cells per plate) were seeded in confocal dishes and incubated with drugs for 24 h. The medium was removed, and cells were fixed with 4% polyoxymethylene solution for 30 min. Subsequently, cells were treated with 20 µg/mL protease K for 5 min and TUNEL working solution for 1 h at 37°C. Eventually, cells were captured with a Leica TCS SP8 super‐resolution laser scanning confocal microscope."}, "HDAC9": {"biological_target": "T5, HDAC9 (Homo sapiens, UniProt Q9UKV0)", "T5 construct": "purchased BPS BIOSCIENCE Inc 50009", "T5 sequence (Q9UKV0 whole entry)": "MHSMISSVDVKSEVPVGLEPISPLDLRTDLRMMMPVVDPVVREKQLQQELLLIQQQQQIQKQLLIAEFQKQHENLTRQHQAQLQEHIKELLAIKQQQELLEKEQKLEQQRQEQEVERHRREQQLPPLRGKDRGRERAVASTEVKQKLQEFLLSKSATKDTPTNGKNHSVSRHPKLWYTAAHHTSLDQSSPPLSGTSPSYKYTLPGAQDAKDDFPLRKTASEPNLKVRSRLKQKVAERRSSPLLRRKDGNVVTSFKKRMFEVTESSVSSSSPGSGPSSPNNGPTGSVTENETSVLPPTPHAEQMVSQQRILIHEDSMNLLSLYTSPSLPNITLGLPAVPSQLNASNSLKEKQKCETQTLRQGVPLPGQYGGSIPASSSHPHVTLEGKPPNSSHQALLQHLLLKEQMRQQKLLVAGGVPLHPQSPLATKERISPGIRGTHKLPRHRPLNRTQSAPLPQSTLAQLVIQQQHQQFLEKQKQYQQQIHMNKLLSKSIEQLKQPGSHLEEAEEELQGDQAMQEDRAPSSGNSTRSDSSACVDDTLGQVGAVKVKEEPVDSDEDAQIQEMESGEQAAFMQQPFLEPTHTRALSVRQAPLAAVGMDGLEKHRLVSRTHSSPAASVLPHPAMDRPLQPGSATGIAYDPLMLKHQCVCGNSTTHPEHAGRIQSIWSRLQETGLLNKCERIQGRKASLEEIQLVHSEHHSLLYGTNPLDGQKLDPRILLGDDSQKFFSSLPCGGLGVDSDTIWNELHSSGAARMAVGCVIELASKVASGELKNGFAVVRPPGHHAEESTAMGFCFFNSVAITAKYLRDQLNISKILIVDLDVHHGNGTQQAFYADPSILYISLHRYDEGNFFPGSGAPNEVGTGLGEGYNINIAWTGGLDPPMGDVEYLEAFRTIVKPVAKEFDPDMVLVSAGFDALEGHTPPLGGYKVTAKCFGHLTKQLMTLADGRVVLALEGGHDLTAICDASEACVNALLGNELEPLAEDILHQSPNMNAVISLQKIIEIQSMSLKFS", "assay": "HDACs enzymatic assay HDAC9", "type": "biochemical", "conditions": "Class IIa", "protocol": "as §1"}, "MDA-MB-231": {"system": "MDA-MB-231", "assay": "CCK-8 antiproliferation assay", "type": "cell-based, human", "protocol": "Cell lines purchased from the Cell Bank of Type Culture Collection of the Chinese Academy of Sciences (Shanghai, China) were passaged after resuscitation. […] The third to tenth passages of cells were used for experiments. […] After incubation, 20 µL CCK‐8 solution (MeilunBio) was added. Two hours later, absorption was measured by a Varioskan plate at 450 nm. Inhibition curves and IC50 values were simulated and calculated using the log(inhibitor) versus response (three parameters) mode via GraphPad Prism software."}, "B16F10 syngeneic model": {"system": "B16F10 syngeneic model", "assay": "B16F10 syngeneic model", "type": "in vivo", "conditions": "C57BL/6J mice, HDAC inhibitors by oral gavage, anti-PD-L1 intraperitoneal, 7-day treatment", "protocol": "With the approval of the ethics committee of Shandong University, C57BL/6J mice were purchased from Charles River and fed in SPF conditions at the Model Animal Research Centre of Shandong University. To establish the B16F10 syngeneic model, cells in logarithmic growth phase were trypsinized with 0.25% trypsin, resuspended in sterile PBS, and adjusted to 1 × 10^6 cells/100 µL. The cell suspension (100 µL) was subcutaneously injected into the left axilla. When tumors reached to certain volume, mice were randomized (n = 5/group) and treated with Chidamide, LBH‐589, or SDFZ‐8 by oral gavage and intraperitoneal injection of anti‐PD‐L1. Tumor growth curves were plotted over a 7‐day treatment cycle. All procedures complied with AAALAC International guidelines for humane endpoint criteria."}, "HDAC3/NCOR1 complex": {"biological_target": "HDAC3/NCOR1 complex (Homo sapiens, UniProt O15379)", "sequence (O15379 whole entry)": "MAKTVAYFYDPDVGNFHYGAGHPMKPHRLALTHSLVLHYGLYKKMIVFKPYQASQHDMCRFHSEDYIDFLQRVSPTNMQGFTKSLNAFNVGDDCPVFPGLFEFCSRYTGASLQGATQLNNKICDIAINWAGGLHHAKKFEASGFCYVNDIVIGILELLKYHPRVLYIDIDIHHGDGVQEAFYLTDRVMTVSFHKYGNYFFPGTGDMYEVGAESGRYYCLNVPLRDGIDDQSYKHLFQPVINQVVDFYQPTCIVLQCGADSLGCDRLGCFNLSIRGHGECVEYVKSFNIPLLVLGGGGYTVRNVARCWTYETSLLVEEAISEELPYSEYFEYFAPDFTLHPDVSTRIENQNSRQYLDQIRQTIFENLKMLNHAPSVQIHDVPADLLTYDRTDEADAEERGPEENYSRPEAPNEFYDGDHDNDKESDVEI", "sequence (Q9Y618 395-489 partner)": "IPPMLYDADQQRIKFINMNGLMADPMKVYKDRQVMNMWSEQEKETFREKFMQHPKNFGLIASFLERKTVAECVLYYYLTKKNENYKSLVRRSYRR", "assay": "HDACs enzymatic assay HDAC3", "type": "biochemical", "conditions": "Class I; mean ± SD of three", "protocol": "as §1"}}, "data": [{"smiles": "O=C(CCCCCCNC(=O)c1cc(OCCc2ccccc2)c2ccccc2n1)NO", "note": "[SDFZ-8]", "values": [{"measurement": "expression level of PD-L1", "setting": "MC38 cells", "result": "increased"}, {"measurement": "IC50", "setting": "HDAC8; Class I, mean ± SD of three", "result": "750 ± 70", "unit": "nM"}, {"measurement": "selectivity toward HDAC8", "setting": "HDAC8; relative to HDAC1", "result": "more than 800 fold"}, {"measurement": "IC50", "setting": "HDAC6", "result": "3.1 ± 0.5", "unit": "nM"}, {"measurement": "PD-L1 expression", "setting": "MDA-MB-231 cells [1]", "result": "increase"}, {"measurement": "IC50", "setting": "HDAC1; Class I, mean ± SD of three", "result": "0.4 ± 0.1", "unit": "nM"}, {"measurement": "HDAC1 potency superior to SAHA", "setting": "HDAC1; versus SAHA", "result": 92, "unit": "fold"}, {"measurement": "IC50", "setting": "HDAC11", "result": "> 10", "unit": "µM"}, {"measurement": "TUNEL green fluorescence (apoptosis)", "setting": "MDA-MB-231 cells [2]", "result": "higher intensity of green fluorescence compared with SAHA"}, {"measurement": "IC50", "setting": "HDAC9", "result": "> 10", "unit": "µM"}, {"measurement": "IC50", "setting": "MDA-MB-231; Homo sapiens, MDA-MB-231, 48 h treatment, CCK-8", "result": "470 ± 80", "unit": "nM"}, {"measurement": "antiproliferation activity better than SAHA", "setting": "MDA-MB-231; MDA-MB-231 cells, versus SAHA", "result": "threefold"}, {"measurement": "TGI", "setting": "B16F10 syngeneic model", "result": 75, "unit": "%"}, {"measurement": "IC50", "setting": "HDAC3/NCOR1 complex", "result": "300 ± 100", "unit": "nM"}]}]}
